In patent US9284252B2, “Use of jasmonate ester derivatives for treating benign hyperproliferative skin disorders” (SEPAL PHARMA LTD., priority 2009, dated 2016):
Values belong to the compound of their own block, whether it stands above or below them.

Tests used:
[1] = system: actinic keratosis (AK) cell line HT297.T; assay: XTT proliferation assay in actinic keratosis cell line; assay type: cell-based; conditions: 72 h, 3 days treatment, HT297.T cells
Procedure: IC50 values were calculated from the mean of triplicate wells for each experiment. […]

[2] = system: UVB-damaged skin in SKH-1 mice; assay: Skin lesion formation induced by UVB, damaged skin mouse model of actinic keratosis; assay type: in vivo
Text: The efficacy of Compound C was further evaluated in an animal model of Actinic Keratosis (AK). The purpose of the study was to determine the effect of compound C against lesion formation in UVB-damaged skin in SKH-1 mice, a mouse model of AK and non-melanoma skin cancers.
The study was divided to two parts: pre-study that included UVB irradiation to induce the damage to the skin, and efficacy study that included the treatment with Compound C compared to standard treatment and efficacy evaluation. After 16 weeks of UVB irradiation, 60% of the animals developed lesions, and treatment was started on week 17 and continued for 7.5 weeks. The total duration of the study was 23.5 weeks.
The study included female mice, 6-8 weeks of age at study initiation. After 16 weeks of UVB irradiation, when 60% (36/60) of the animals developed at least 1 lesion, mice were randomly stratified into 12 mice per group (see Table 4) according to score and number of lesions. Picato gel (Ingenol mebutate, Leo Pharma Inc.) was used as the positive control.
For UVB irradiation, Vilber-Lourmat (France) Lamp VL-6.M was used, irradiating at 312 nm with an intensity of 0.89 mW/cm^2 at a distance of 15 cm. Determination of UVB irradiation Minimal Erythemal Dose (MED) was performed prior to the beginning of the study (during the pre-study period). Animals were UVB irradiated during different time periods (starting at 30 sec) and the presence of erythema was recorded 24 and 48 hours later.
Observations for clinical scoring and signs of erythema and edema, were performed twice a week. Erythema and edema scoring were performed according to the grading levels described in Table 5 below. Lesion numbers were determined once a week during Weeks 4-6 and twice a week during Weeks 7-16 until treatment started. During treatment, lesion number and erythema-edema scores were performed twice a week.

[3] = system: reconstituted three-dimensional human epidermis model (EPISKIN-Standard Model); assay: Skin irritation assay, reconstituted human epidermis model EPISKIN-SM; conditions: 15 minutes application, 42 hours post-incubation
[4] = system: reconstituted three-dimensional human epidermis model (EpiDerm skin model); assay: Skin corrosion assay, EpiDerm skin model; assay type: cell-based
Procedure: In particular, MJ was applied topically to the EpiDerm™ tissue and incubated for 3 and 60 minutes at each time. After the incubation period, tissue viability was assessed via MTT reduction assay.

[5] = system: malignant keratinocytes A431 cell line; conditions: cited from earlier work
[6] = system: metastatic melanoma cells; conditions: cited from earlier work
[7] = system: cervical cancer cell lines; conditions: range of cervical cancer cell lines; cited from earlier work
[8] = assay type: in vitro ADME; conditions: human
lymphomas in mice = conditions: cited from earlier work
[9] = system: reconstituted three-dimensional human epidermis model (EPISKIN-Standard Model)

IC50 [1]: 0.25 µM
SMILES: CC/C=C\CC1C(=O)CCC1CC(=O)Oc1cccc2cccnc12 (stereo not shown) [Compound C]
maximal reduction in lesion number on Day 50 ([2]; Compound C 2.5% topical, group 3F): 65%
maximal reduction in lesion number on Day 50 ([2]; Compound C 40% topical, group 5F): 72%
maximal reduction in lesion number on Day 50 ([2]; group 4F (5% topical per Table 4)): 70%
histopathology evaluation of skin ([2]; groups treated with compound C): look similar to naïve (healthy) animals
gross pathology examination ([2]; mouse, in vivo): No abnormality was detected
skin erythema or edema following topical treatment ([2]; mouse, in vivo): no skin erythema or edema
reduction in total area of lesions and total tumor area ([2]; topical, concentration not given): 70%

SMILES: CCCCCCCCCCCCOS(=O)(=O)[O-].[Na+] [5% SDS solution]
Mean relative tissue viability (%) (MTT reduction) [3]: 3.3 ± 0.6%
IL-1α release ([3]; tissue culture medium): 236.7 ± 23.0 pg/mL

SMILES: [K+].[OH-] [8N KOH]
Mean relative tissue viability (%) (MTT reduction) after 3 minutes ([4]; 3 minutes treatment): 26 ± 5.3%
Mean relative tissue viability (%) (MTT reduction) after 60 minutes ([4]; 60 minutes treatment): 14 ± 3.7%

IC50 [1]: 21.1 µM
local intra-skin concentrations [8]: ~1 M
SMILES: CC/C=C\CC1C(=O)CCC1CC(=O)OC (stereo not shown) [MJ, methyl jasmonate]
toxicity on A431 cell line [5]: low toxicity
corrosion classification according to OECD Guideline and EC Commission Regulation [4]: non-corrosive
cell motility [6]: suppresses cell motility
development of lung metastases [6]: inhibits the development of lung metastases
cytotoxicity [7]: cytotoxic
prevention of development of lymphomas (lymphomas in mice): effective
irritation classification according to ECVAM SIVS recommendations [9]: non-irritant

SMILES: CC/C=C\C[C@H]1C(=O)CC[C@@H]1CC(=O)O [jasmonic acid]
toxicity on A431 cell line [5]: low toxicity
